pIC50: −log10 of the molar value.
System: RS4; 11 with G101V mutation
Test: In vitro anti-proliferation assay (ATPlite luminescence) in BCL-2-dependent ALL cell line RS4;11 with G101V mutation
Format: cell-based
Details: cellular anti-proliferative IC50, about 72 hours, medium with 10% FBS, ATPlite; read-out: RS411-G101V IC50
In short: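 IC50 came from luminescent ATP quantification (ATPlite) following cell lysis. Compound dose ranges were applied for roughly 72 h to about 1×10^4 G101V-mutant RS4;11 cells per well, in 10% FBS medium.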

SMILES | pIC50
COc1cc(CN2CCN(C3CC4(CCN(c5ccc(C(=O)NS(=O)(=O)c6ccc(NCC7CCOCC7)c([N+](=O)[O-])c6)c(N6c7cc8cc[nH]c8nc7O[C@H]7COCC[C@@H]76)c5)CC4)C3)[C@@H](c3ccccc3OC(C)C)C2)cnc1N1CCOCC1 [Example 132, 2-[(3R,8S)-2,5-dioxa-9,15,17-triazatetracyclo[8.7.0.0^{3,8}.0^{12,16}]heptadeca-1(10),11,13,16-tetraen-9-yl]-4-{2-[(2S)-2-(2-isopropoxyphenyl)-4-{[5-methoxy-6-(morpholin-4-yl)pyridin-3-yl]methyl}piperazin-1-yl]-7-azaspiro[3.5]nonan-7-yl}-N-{3-nitro-4-[(oxan-4-ylmethyl)amino]benzenesulfonyl}benzamide] | 7.49
CC(C)Oc1ccccc1[C@@H]1CN(Cc2ccc(C#N)nc2)CCN1C1CC2(CCN(c3ccc(C(=O)NS(=O)(=O)c4cc5c(c([N+](=O)[O-])c4)N[C@H](C4CCOCC4)CO5)c(N4c5cc6cc[nH]c6nc5O[C@H]5COCC[C@@H]54)c3)CC2)C1 [Example 262, 4-{2-[(2R)-4-[(6-cyanopyridin-3-yl)methyl]-2-(2-isopropoxyphenyl)piperazin-1-yl]-7-azaspiro[3.5]nonan-7-yl}-2-[(3R,8S)-2,5-dioxa-9,15,17-triazatetracyclo[8.7.0.0^{3,8}.0^{12,16}]heptadeca-1(10),11,13,16-tetraen-9-yl]-N-[(3R)-5-nitro-3-(oxan-4-yl)-3,4-dihydro-2H-1,4-benzoxazin-7-ylsulfonyl]benzamide] | 8.19
CC(C)Oc1ccccc1[C@H]1CN(Cc2ccc(N3CCOCC3)nc2)CCN1C1CC2(CCN(c3ccc(C(=O)NS(=O)(=O)c4ccc(NCC5CCC(C)(O)CC5)c([N+](=O)[O-])c4)c(N4c5cc6cc[nH]c6nc5O[C@H]5COCC[C@@H]54)c3)CC2)C1 (stereo partly drawn) [Example 100, 2-[(3R,8S)-2,5-dioxa-9,15,17-triazatetracyclo[8.7.0.0^{3,8}.0^{12,16}]heptadeca-1(10),11,13,16-tetraen-9-yl]-4-{2-[(2S)-2-(2-isopropoxyphenyl)-4-{[6-(morpholin-4-yl)pyridin-3-yl]methyl}piperazin-1-yl]-7-azaspiro[3.5]nonan-7-yl}-N-[3-nitro-4-({[(1r,4r)-4-hydroxy-4-methylcyclohexyl]methyl}amino)benzenesulfonyl]benzamide] | 7.79
COc1ccc(CN2CCN(C3CC4(CCN(c5ccc(C(=O)NS(=O)(=O)c6ccc(NCC7CCC(C)(O)CC7)c([N+](=O)[O-])c6)c(N6c7cc8cc[nH]c8nc7O[C@H]7COCC[C@@H]76)c5)CC4)C3)[C@@H](c3ccccc3OC(C)C)C2)cn1 (stereo partly drawn) [Example 102, 2-[(3R,8S)-2,5-dioxa-9,15,17-triazatetracyclo[8.7.0.0^{3,8}.0^{12,16}]heptadeca-1(10),11,13,16-tetraen-9-yl]-4-{2-[(2S)-2-(2-isopropoxyphenyl)-4-[(6-methoxypyridin-3-yl)methyl]piperazin-1-yl]-7-azaspiro[3.5]nonan-7-yl}-N-[3-nitro-4-({[(1r,4r)-4-hydroxy-4-methylcyclohexyl]methyl}amino)benzenesulfonyl]benzamide] | 7.74
Cc1ccccc1[C@@H]1CN(CC2CCOCC2)CCN1C1CC2(CCN(c3ccc(C(=O)NS(=O)(=O)c4ccc(NC[C@H]5CC[C@](C)(O)CC5)c([N+](=O)[O-])c4)c(N4c5cc6cc[nH]c6nc5O[C@H]5COCC[C@@H]54)c3)CC2)C1 [Example 156, 2-[(3R,8S)-2,5-dioxa-9,15,17-triazatetracyclo[8.7.0.0^{3,8}.0^{12,16}]heptadeca-1(10),11,13,16-tetraen-9-yl]-4-{2-[(2R)-2-(2-methylphenyl)-4-(oxan-4-ylmethyl)piperazin-1-yl]-7-azaspiro[3.5]nonan-7-yl}-N-[3-nitro-4-({[(1r,4r)-4-hydroxy-4-methylcyclohexyl]methyl}amino)benzenesulfonyl]benzamide] | 7.91
